# Data as given in patent US9738684B2, “N-terminally modified linear and branched polyamine conjugated peptidomimetics as antimicrobials agents” (COUNCIL OF SCIENTIFIC & INDUSTRIAL RESEARCH, priority 2015, dated 2017).
# How the values were obtained:
# [1] = tested on: S. aureus (ATCC 29213); assay: MIC, serial broth dilution; format: cell-based, Staphylococcus aureus
# Experimental: (§1) The peptidomimetics designed in present invention were evaluated as antibacterial therapeutics against a broad range of bacterial strains by broth microdilution method. The antibacterial activity of the peptidomimetics was reported in terms of the minimum inhibitory concentrations (MIC).
# (§2) Following bacterial strains were used in this study: S. aureus (ATCC 29213), methicillin resistant S. aureus (ATCC 33591), Staphylococcus epidermidis (ATCC 12228), methicillin resistant Staphylococcus epidermidis(ATCC 51625), Enterococcus faecalis (ATCC 7080), Escherichia coli (ATCC 11775), and Acinetobacter baumannii (ATCC 19606). Antibacterial activity was evaluated using a modified serial broth dilution method in accordance with Clinical Laboratory Standard Institute guidelines [Methods for dilution antimicrobial susceptibility tests for bacteria that grow aerobically-7th ed. Approved standard M7-A7. Clinical and Laboratory Standards Institute, Wayne, Pa., Biochim. Biophys. Acta 1798:1864-1875, 2010.]. Briefly, the inoculums were prepared from mid-log phase bacterial cultures. Peptidomimetics were incubated with bacterial suspension in Muller Hinton broth media (10^5 CFU/mL) in 96 well microtitre plate. The plates were incubated overnight with agitation (200 rpm) at 37° C. After 18 h, absorbance was measured at 630 nm. Cultures without test peptidomimetics were used as positive control. Un-inoculated Mueller Hinton Broth (MHB) was used as negative control. Tests were carried out in duplicate on at least three different days. […] For comparison standard peptide antibiotics vancomycin (VAN) and polymyxin B (PMB) were also assayed under identical conditions (Table 2). […] Further, antibacterial activity of active peptidomimetics 1c and 1d were also evaluated against MRSA in presence of 25% v/v human serum as well as bovine serum.
# [2] = tested on: methicillin resistant S. aureus (ATCC 33591); assay: MIC, serial broth dilution; format: cell-based, Staphylococcus aureus; details: 18 h
# Experimental: as §1, §2
# [3] = tested on: Enterococcus faecalis (ATCC 7080); assay: MIC, serial broth dilution; format: cell-based; details: MHB, 18 h, 37° C.
# Experimental: as §1, §2
# [4] = tested on: Staphylococcus epidermidis (ATCC 12228); assay: MIC, serial broth dilution; format: cell-based
# Experimental: as §1, §2
# [5] = tested on: human red blood cells (hRBC); assay: Hemolytic activity; format: cell-based; details: 250 μg/mL, 1 h at 37° C.
# Experimental: Hemolytic activity of the peptidomimetics was evaluated on human red blood cells (hRBC) as described previously with minor modifications [FEBS J, 273:4040-4054, 2006; Biochim Biophys Acta., 1798:1864-1875, 2010]. Briefly, 100 μL of fresh hRBC suspension 4% v/v in NaCl/Pi (35 mM phosphate buffer, 150 mM NaCl, pH 7.2) was placed in a 96-well plate. After incubation of the peptidomimetics (100 μL) in the hRBC suspension for 1 h at 37° C., the plates were centrifuged and supernatant (100 μL) was transferred to fresh 96-well plate. Absorbance was read at 540 nm using ELISA plate reader (Molecular Devices). Percent hemolysis was calculated using the following formula: % hemolysis=100[(A−A0)/(At−A0)]
# Where, A represents absorbance of sample wells at 540 nm. Also A0 and At represents 0% and 100% hemolysis determined in NaCl/Pi and 1% Triton X-100, respectively (Table 2). […] Peptidomimetics 1e and 1f caused 31% and 30% hemolysis at 250 μg/mL. Peptidomimetics 2d, 2e and 2f caused significant hemolysis with 83%, 96% and 88% damage to hRBCs at […] respectively.
# [6] = tested on: Gram-positive bacterial strains; assay: Antibacterial activity; format: cell-based
# Experimental: as §2
# [7] = tested on: MRSA; assay: Membrane depolarization with DiSC3(5) dye; format: cell-based, Staphylococcus aureus; details: up to the highest concentration tested
# Experimental: For determination of membrane depolarizing ability of designed peptidomimetics, a membrane potential sensitive dye DiSC3(5) was used as described previously with minor modifications [Org Biomol. Chem. 10: 8326-8335, 2012; J. Am. Chem. Soc., 132: 18417-18428, 2010.]. Briefly, overnight grown MRSA was sub cultured into MHB for 2-3 h at 37° C. to obtain mid-log phase cultures. The cells were centrifuged at 4000 rpm for 10 min at 25° C., washed, and re-suspended into respiration buffer (5 mM HEPES, 20 mM glucose, pH 7.4) to obtain a diluted suspension of OD600˜0.05. Then DiSC3(5) [0.18 μM in DMSO], was added to 500 μL aliquotes of the re-suspended cells and allowed to stabilize for 1 h. Baseline fluorescence was acquired using a Edinburg F900 spectrofluorometer by excitation at 622 nm and emission at 670 nm in a 1 cm path length cuvette. Bandwidth of 5 nm was employed for excitation and emission. Subsequently, increasing concentrations of test peptidomimetics were added to the stabilized cells and the increase of fluorescence on account of the de-quenching of DiSC3(5) dye was measured after every 2 min to obtain the maximal depolarization. Increase in relative fluorescence unit (RFU) was plotted against increasing concentrations of different peptidomimetics or PMB. […] The increase in fluorescence for lipid tagged peptidomimetics was concentration dependent up to 9.9 μg/mL and henceforth, got saturated resulting into plateau like dose response curves. The experiment was repeated twice on two consecutive days and produced similar results.
# [8] = tested on: Acinetobacter baumannii (ATCC 19606); assay: MIC, serial broth dilution; format: cell-based; details: Acinetobacter baumannii, ATCC19606, 18 h, read-out: MIC A. baumannii (ATCC 19606)
# Experimental: as §1, §2
# [9] = tested on: methicillin resistant Staphylococcus epidermidis (ATCC 51625); assay: MIC, serial broth dilution; format: cell-based; details: Staphylococcus epidermidis, ATCC 51625 / MRSE, 18 h, read-out: MIC MRSE (ATCC 51625)
# Experimental: as §1, §2
# [10] = tested on: Escherichia coli (ATCC 11775); assay: MIC, serial broth dilution; format: cell-based; details: Escherichia coli, ATCC11775, 18 h, read-out: MIC E. coli. (ATCC 11775)
# Experimental: as §1, §2
# [11] = tested on: Gram-negative bacterial strains; assay: Antibacterial activity; format: cell-based
# Experimental: as §2
# [12] = tested on: Staphylococcus species; assay: Antibacterial activity; format: cell-based
# Experimental: as §2
# [13] = tested on: S. aureus (ATCC 33591); assay: Resistance development study, serial passage at sub MIC; format: cell-based, Staphylococcus aureus; details: 17 serial passages at sub MIC
# Experimental: FIG. 5: Illustration of resistance development study in S. aureus (ATCC 33591) after 17 serial passages with sub MIC of 1c/1d or antibiotic treatment. The fold change in MIC is the ratio of the MIC after 17 passages relative to that MIC observed before first passage.
# To determine potential of active peptidomimetics against resistance development, in vitro serial passage method at sub inhibitory concentration was done. Briefly, bacterial suspension (100 μL) from duplicate wells at the concentration of sub-MIC was used to inoculate fresh culture. The culture was grown to obtain approximately 10^5 CFU/mL for the next experiment. These bacterial suspensions were then incubated with desired concentration of antibacterial agents for 18 h to determine new MIC. The same sub culturing protocol was used for next 16 passages and MIC was determined using OD630 nm as described previously in the text [Chem. Biol., 20:1286-1295, 2013.]
# [14] = tested on: MRSA (ATCC 33591); assay: Planktonic MIC in biofilm media (MICb); format: cell-based, Staphylococcus aureus; details: TSB with 0.5% NaCl and 0.25% glucose
# [15] = tested on: MRSA (ATCC 33591) biofilm; assay: 24 h preformed mature biofilm (alamar blue, crystal violet); format: cell-based, Staphylococcus aureus; details: Staphylococcus aureus, 24 h, read-out: viable cells in 24 h pre-formed mature biofilm (alamar blue)
# Experimental: To evaluate potential of designed active peptidomimetics against MRSA biofilms a methodology as used previously was employed with minor modifications [Antimicrob. Agents Chemother., 57:2726-2737, 2013]. Briefly, freshly inoculated MRSA (ATCC 33591) was grown in biofilm growth media (TSB supplemented with 0.5% w/v NaCl and 0.25% w/v glucose) overnight. Next day, the culture was diluted in fresh biofilm growth media to 10^5 CFU/mL. 200 μl of diluted culture was dispensed in wells of a 96-well polystyrene plate for biofilm formation. […] Biofilm cultures were re-incubated at 37° C. for 24 h. After removal of medium, the biofilms were further washed twice with sterile NaCl/Pi buffer and assessed for metabolic activity (alamar blue assay) and biomass quantification (Crystal violet assay).
# [16] = tested on: MRSA (ATCC 33591) biofilm; assay: Confocal laser scanning microscopy of biofilm, thickness by z-stacking; format: cell-based, Staphylococcus aureus; details: for confocal observation of mature biofilm: 24 h preformed biofilm
# Source text: For visualization of biofilm and validation of AB and CV assay we performed confocal microscopy. For this biofilm formation was induced on glass cover slips in a 6-well plate. The biofilm on cover slips were washed twice with sterile NaCl/Pi buffer and stained with a Live/Dead kit reagent (Invitrogen, Molecular Probes, Eugene, Oreg., USA) following the manufacturer's instructions. This stain contains DNA binding dyes SYTO 9 (green fluorescent) and propidium iodide (PI; red fluorescent). When used alone, SYTO 9 stains all bacteria in a population, those with intact as well as damaged membranes. In contrast, PI penetrates only bacteria with damaged membranes, causing a reduction in the SYTO 9 stain (green fluorescence). The biofilms were examined with an Olympus flow view FV1000 (confocal laser scanning microscope, CLSM). The experiment was repeated three times on three different days and representative data is presented here.
# We next measured the thickness of biofilm using z-stacking in confocal microscopy. […] At MICb, 1c and 1d prevented formation of biofilm in which very few cells were adhered to substratum with observed average thickness of 3.9±1.1 μm and 3.5±0.6 μm, respectively. Furthermore, at sub-MICb concentration the observed thicknesses were 5.2±0.3 μm and 5.8±0.4 μm (FIG. 7A.b and FIG. 7A.d).
structure (smiles),measurement,setting,value
NCCCNCCCCNCCCNC(=O)C(Cc1c[nH]c2ccccc12)NC(=O)C(N)Cc1c[nH]c2ccccc12 (stereo not shown) [1a],MIC S. aureus (ATCC 29213),"[1]; MHB, 18 h, 37° C.",0.1136 µg/mL
same,MIC MRSA (ATCC 33591),"[2]; MHB, 37° C.",227.2 µg/mL
same,MIC E. facaelis (ATCC 7080),[3],0.4545 µg/mL
same,MIC S. epidermidis (ATCC 12228),"[4]; MHB, 18 h, 37° C.",113.6 µg/mL
same,"% H, percentage hemolysis of human RBCs",[5],4%
same,activity against Gram-positive bacterial strains,[6],moderate activity
same,"change in relative fluorescence unit (RFU), membrane depolarization",[7],only minor increase
"CN[C@H](CC(C)C)C(=O)N[C@H]1C(=O)N[C@@H](CC(N)=O)C(=O)N[C@H]2C(=O)N[C@H]3C(=O)N[C@H](C(=O)N[C@H](C(=O)O)c4cc(O)cc(O)c4-c4cc3ccc4O)[C@H](O)c3ccc(c(Cl)c3)Oc3cc2cc(c3O[C@@H]2O[C@H](CO)[C@@H](O)[C@H](O)[C@H]2O[C@H]2C[C@](C)(N)[C@H](O)[C@H](C)O2)Oc2ccc(cc2Cl)[C@H]1O [VAN, vancomycin, reference compound]",MIC,"[1]; Staphylococcus aureus, ATCC29213, 18 h, read-out: MIC S. aureus (ATCC 29213)",0.0004 µg/mL
same,MIC,"[2]; Staphylococcus aureus, ATCC 33591 / MRSA, read-out: MIC MRSA (ATCC 33591)",0.0008 µg/mL
same,MIC,[8],0.0568 µg/mL
same,MIC,"[4]; Staphylococcus epidermidis, ATCC12228, 18 h, read-out: MIC S. epidermidis (ATCC 12228)",0.0004 µg/mL
same,MIC,[9],0.0008 µg/mL
same,MIC,[10],0.114 µg/mL
same,growth inhibition of Gram-negative bacterial strains,[11],ineffective
same,activity against Staphylococcus species,[12],potent growth inhibition
same,increase in MIC after 17 passages,[13],4 fold
same,"MICb, planktonic MIC in biofilm media",[14],0.8 µg/mL
same,viability at 20 µg/mL,[15],77.7 ± 7%
same,confocal observation of mature biofilm,[16]; 10×MICb,little effect
same,confocal observation of mature biofilm,[16]; 20×MICb,slight decrease in the height of mature biofilm
same,"average thickness of biofilm, biofilm formation","[16]; MICb, control 14.3±1.4 μm",11.4±2.9 μm
same,"thickness of biofilm, biofilm formation","[16]; sub-MICb, control 14.3±1.4 μm",unable to reduce biofilm thickness
